US20250127790A1, “COMBINATION THERAPY USING VPS34 INHIBITORS” (Deciphera Pharmaceuticals, LLC, priority 2021, published 2025)

How the values were obtained:
4T1 breast cancer cells = test: qRT-PCR, combination with cGAMP, 4T1 cells; format: cell-based, Mouse; conditions: 24 hours, 5 μM Compound 1 or 10 μM Compound 2, 10 mg/ml cGAMP
Protocol: (§1) 4T1 cells were treated for 24 hours with DMSO or VPS34 inhibitors (5 μM Compound 1 or 10 μM Compound 2) in combination with 10 mg/ml STING agonist cGAMP (green bars). Cells were washed with PBS and RNA was isolated using the PureLink RNA kit (#12183018A, Thermo Fisher Scientific) according to the manufacturer's protocol. Genomic DNA was removed using DNA-binding columns (RNeasy plus kit, #74134, Qiagen) and/or DNase treatment (#12185010, Thermo Fisher Scientific). RNA was quantified using NanoDrop (Thermo Fisher Scientific) and 50 ng/μL RNA was used for cDNA synthesis with SuperScript IV VILO Master Mix (#11756050, Thermo Fisher Scientific). Quantitative RT-PCR (qRT-PCR) was run with diluted cDNA (1:25 or 1:12.5), PowerUp SYBR Green Master Mix (#A25741, Thermo Fisher Scientific), and 200 nM primers (see below) on a CFX Connect RT-PCR system (BioRad). Data was analyzed using the ΔΔCT method. Results are mean±SEM of three independent experiments.

[1] = test system: A-498 renal cell carcinoma cells; test: Western blot, STING pathway proteins with siRNA knockdown, A-498 cells; format: cell-based; conditions: 24 h; for CGAS level / STING level / p-IRF3 level / p-STAT1 level / p-TKB1 level / p-IRF3 and p-STAT1 levels with siRNA knockdown of CGAS / p-TKB1 level with siRNA knockdown of CGAS / p-IRF3 and p-STAT1 levels with siRNA knockdown of STING / p-TBK1 level with siRNA knockdown of STING: 2 μM; for CGAS level / STING level / p-IRF3 level / p-STAT1 level / p-TKB1 level: vs DMSO alone; for p-IRF3 and p-STAT1 levels with siRNA knockdown of CGAS / p-TKB1 level with siRNA knockdown of CGAS: siCGAS; for p-IRF3 and p-STAT1 levels with siRNA knockdown of CGAS / p-TKB1 level with siRNA knockdown of CGAS / p-IRF3 and p-STAT1 levels with siRNA knockdown of STING / p-TBK1 level with siRNA knockdown of STING: vs compound alone; for p-IRF3 and p-STAT1 levels with siRNA knockdown of STING / p-TBK1 level with siRNA knockdown of STING: siSTING; for STING level with siRNA knockdown of TBK1 / CGAS level with siRNA knockdown of TBK1: siTBK1, 2 μM; for CGAS level with siRNA knockdown of TBK1: vs DMSO
Protocol: A-498 cells were transfected with scrambled siRNA control (siSCR) or siRNA targeting TBK1 (siTBK1), STING (siSTING) or CGAS (siCGAS). After 48 h cells were treated with DMSO or 2 μM of VPS34 inhibitor (Compound 1 or Compound 2) for 24 h. A-498 cells were washed in PBS and lysed in RIPA buffer (50 mM Tris HCl pH=7.4, 150 mM NaCl, 1% Triton X-100, 0.5% Na-deoxycholate, 0.1% SDS) containing protease inhibitor cocktail (#11836170001, Roche), and phosphatase inhibitor (#11836170001, Roche) for 10 min at 4° C. After centrifugation at 15000 rpm for 10 min at 4° C., the supernatant was obtained, and protein concentration was quantified using BCA assay (#23225, Thermo Fisher). Equal amounts were mixed with 0.1 M DTT and LDS Sample Buffer (#84788, Thermo Fisher), heated for 5 min at 90° C. before loading onto 4-12% Bis-Tris gels. Proteins were transferred to nitrocellulose membranes. Membranes were blocked in 5% non-fat dry milk in TBS with 0.05% Tween (TBS-T) for 1 h at RT, washed in TBS-T, and probed with primary antibodies shaking overnight at 4° C. After washing in TBS-T, membranes were incubated with IRDye 800CW goat anti-rabbit or IRDye 680RD donkey anti-mouse IgG (H+L) (#926-32211 and #926-68072, respectively, LI-COR, 1:10,000 dilution) secondary antibody in Intercept blocking buffer (#927-60001, LI-COR) for 1 h at RT. After washing in TBS-T, membranes were imaged using the Odyssey CLx (LI-COR). Band intensities were quantified using Image Studio Lite software version 5.2.5 (LI-COR).

[2] = test system: 786-O renal cell carcinoma cells; test: qRT-PCR, Type 1 Interferon pathway gene expression in 786-O cells; format: cell-based, Human; conditions: 2 μM, 24 hr
Protocol: as §1, with “786-O” for “4T1”, “grown in RPMI-1640 medium containing 10% fetal bovine serum. Cells were then incubated for 2 days at 37 degrees Celsius, 5% CO2, and 95% humidity. 786-O cells were incubated with 2 μM of compound 1” for “treated”, “hr.” for “hours with DMSO or VPS34 inhibitors (5 μM Compound 1 or 10 μM Compound 2) in combination with 10 mg/ml STING agonist cGAMP (green bars).”

[3] = test system: A-498 renal cell carcinoma cells; test: Cytokine secretion assay (MSD) with siRNA knockdown, A-498 cells; format: cell-based, human; conditions: 24 h; for CCL5 and CXCL10 secretion with siRNA knockdown of CGAS: siCGAS; for CCL5 and CXCL10 secretion with siRNA knockdown of CGAS / increase in CCL5 protein secretion / increase in CXCL10 protein secretion / CCL5 and CXCL10 protein secretion with siRNA knockdown of STING: 2 μM; for CCL5 and CXCL10 secretion with siRNA knockdown of CGAS / CCL5 and CXCL10 protein secretion with siRNA knockdown of STING / CCL5 or CXCL10 protein secretion with siRNA knockdown of TBK1: vs compound alone; for increase in CCL5 protein secretion / increase in CXCL10 protein secretion: siRNA against non-specific controls (siSCR); for CCL5 and CXCL10 protein secretion with siRNA knockdown of STING: siSTING; for CCL5 or CXCL10 protein secretion with siRNA knockdown of TBK1: siTBK1, 2 μM
Protocol: A-498 cells were transfected with scrambled siRNA control (siSCR) or siRNA targeting TBK1 (siTBK1), STING (siSTING) or CGAS (siCGAS). After 48 h cells were treated with DMSO or 2 μM of VPS34 inhibitor (Compound 1 or Compound 2) for 24 h. Cell culture medium was centrifuged at 1600 rpm for 10 min at 4° C. and obtained supernatant stored at −80° C. Cytokine levels were quantified using following Meso Scale Discovery (MSD) assays: human R-PLEX RANTES/CCL5 (#F21ZN), U-PLEX CXCL10/IP-10 (#K151UFK). Assays were run on the SECTOR Quickplex Imager and analyzed using Discovery Workbench version 4.0 (MSD).

Row | SMILES | CCL5 mRNA expression (4T1 breast cancer cells) | CXCL10 mRNA expression (4T1 breast cancer cells) | CGAS level [1] | STING level [1] | p-IRF3 level [1] | p-STAT1 level [1] | p-TKB1 level [1] | p-IRF3 and p-STAT1 levels with siRNA knockdown of CGAS [1] | p-TKB1 level with siRNA knockdown of CGAS [1] | p-IRF3 and p-STAT1 levels with siRNA knockdown of STING [1] | p-TBK1 level with siRNA knockdown of STING [1] | STING level with siRNA knockdown of TBK1 [1] | CGAS level with siRNA knockdown of TBK1 [1] | increase in mRNA expression of IRF9 [2] | CCL5 and CXCL10 secretion with siRNA knockdown of CGAS [3] | increase in CCL5 protein secretion [3] [fold] | increase in CXCL10 protein secretion [3] [fold] | CCL5 and CXCL10 protein secretion with siRNA knockdown of STING [3] | CCL5 or CXCL10 protein secretion with siRNA knockdown of TBK1 [3]
1 | C[C@@H]1COCCN1c1cc(=O)n2c(n1)N(Cc1cncc(Cl)c1)[C@H](C(F)(F)F)CC2 [Compound 2, (S)-9-((5-chloropyridin-3-yl)methyl)-2-((R)-3-methylmorpholino)-8-(trifluoromethyl)-6,7,8,9-tetrahydro-4H-pyrimido[1,2-a]pyrimidin-4-one] | increased | increased | mild increase | increase | strong increases | strong increases | increase | complete loss | decrease | complete loss | decrease | increase | increase | approximately 2 fold | down to the levels of DMSO controls | ~2 | ~2 | down to the levels of DMSO controls | non-significant changes
2 | C[C@@H]1COCCN1c1cc(N2CCCC[C@@H]2C(F)(F)F)[nH]c(=O)c1 [Compound 1, 4-((R)-3-methylmorpholino)-6-((R)-2-(trifluoromethyl)piperidin-1-yl)pyridin-2(1H)-one] | increased | increased | mild increase | increase | strong increases | strong increases | increase | complete loss | decrease | complete loss | decrease | increase | increase | approximately 2 fold | down to the levels of DMSO controls | ~2 | ~2 | down to the levels of DMSO controls | non-significant changes
